Experimental data published in patent publication US12521415B2, “Accelerating repair of mucosal injury using gold(III) compounds” (University of Kentucky Research Foundation, priority 2020, dated 2026).
Entries after “also recorded” stand apart in the source; their conditions may differ.

Tests used:
[1] = test system: colonic IEC; test: High-resolution respirometry (OCR), mtDNA and mRNA of colonic IEC from AuPhos-fed mice; format: in vivo, mouse
Excerpt: FIG. 10B includes high resolution respirometry results showing OCR in mitochondrial complexes of IECs from (A). […] FIG. 10D provides results of RT-qPCR analysis of genes associated with mitochondrial respiratory enzymes in AuPhos vs. control DSS mice. Stats—2-way ANOVA with Sidak's multiple comparison test. ★★<0.01, ★★★<0.0001.
FIGS. 16A-16E illustrate the pharmacokinetics and effects of AuPhos on mitochondrial bioenergetics. FIG. 16A. Biodistribution and pharmacokinetics of AuPhos in different tissues; Colon, Small bowel, Spleen, Liver after a single intragastric (i.g.) gavage (25 mg/kg) with measurements of AuPhos tissue levels (graphite furnace atomic absorption spectroscopy) at times indicated. FIG. 16B. Mitochondrial uptake of AuPhos by measuring gold content in mitochondrial fractions in normal colonocytes (NCM460). FIG. 16C. High-resolution respirometry showing OCR in mitochondrial complexes of freshly isolated IECs from AuPhos (25 mg/kg; q3D×3 doses)-fed mice compared to controls (vehicle only). Stats—2-way ANOVA with Sidak's multiple comparison test. ß<0.05, ßß<0.01. FIG. 16D.
Isolated IECs will be suspended in a mitochondria respiration medium and integrated respiration evaluated using Oxygraph-2K (Oroboros Instruments). Briefly, the capacity of electron transport system (ETS) will be evaluated by direct titration of protonophore, carbonyl cyanide p-(trifluoromethoxy) phenylhydrazone ([…]) after stabilization of routine respiration. After routine endogenous respiratory phase, cells will be permeabilized with digitonin and complex I (CI) substrates malate and pyruvate (5 mM, respectively).
OxPHOS will be then be stimulated by subsequent addition of ADP followed by additional CI substrate glutamate (5 mM). […] Residual non-mitochondrial oxygen consumption will be determined by addition of complex III inhibitor antimycin-A (1 ug/ml). Oxygen consumption rate (OCR) of isolated mitochondria will also be evaluated using Oxygraph-2K or high-throughput Seahorse XFe24 Extracellular Flux Analyzer (Agilent Technologies). […]

[2] = test system: human colonoids; test: AmplexRed H2O2 production in human colonoid monolayer cultures; format: cell-based
Description: FIG. 11A includes representative images showing AuPhos-induced (200 nM) mtROS (superoxide) production using MitoSOX Red assay.
Murine IEC will be isolated as above. Human biopsies will be incubated for 15 min at RT in CMF-HBSS/10 mM DTT with following incubation at 4° C. CMF-HBSS/8 mM EDTA for 75 min. Epithelial cells will be dislodged by vigorous shaking. Large pieces of tissue will be discarded, epithelial cells harvested by centrifugation at 40 g/5 min and imbedded in Matrigel. Both human and mouse colonoids will be grown in WRN medium (conditional medium from L-WRN cells (ATCC CRL-3276)) supplemented with 20% FBS, 500 nM A 83-01, 10 μM SB 202190, 10 μM Y27632, 2.5 μM CHIR99021, 100 μg/ml piromicin and 2.5 μg/ml amphotericin. Colonoids will be passaged every 5-7 days. NCM460 cells derived from normal human colon mucosa were purchased from INCELL Corporation, and will be cultured in M3:10 medium with 30% conditioned medium from previous culture under standard incubation conditions.
Given the in vivo data in FIG. 10, it was determined if AuPhos increases ROS levels within mitochondria (mtROS). To examine this possibility, colonic NCM460 cells were cultured, treated with a positive control (Rotenone), AuPhos (200 nM) or AuPhos with PEG-SOD (negative control) and analyzed with MitoSOX Red (an indicator of mitochondrial superoxide). […]

With `[Cl][Au]1([c]2ccccc2Cc2ccccn2)[P](c2ccccc2)(c2ccccc2)c2ccccc2[P]1(c1ccccc1)c1ccccc1` [AuPhos] the “OCR in IEC in vivo” value ([1]; 25 mg/kg q3D x3 doses, freshly isolated colonic IEC, OROBOROS 2K) was “increased OCR in IEC in vivo from states II-V; also recorded: enhances mitochondrial respiration; also recorded: increased OCR (OxPHOS)”, the “mtDNA (mtDNA/nucDNA ratio) in IEC” value ([1]; IEC from AuPhos-treated mice) was “increased mtDNA; also recorded: higher mtDNA/nucDNA ratio” and the “mRNA for mitochondrial CO1 and COX2” value ([1]; IEC from AuPhos-treated mice, RT-qPCR) was “increased”. The “hydrogen peroxide (H2O2) production” value ([2]; AuPhos 200 nM, normal and low-dose TNF-stimulated human colonoids, AmplexRed) was “increased in normal and TNF-treated cells; also recorded: Increases H2O2 production” and the “AuPhos-induced ROS (H2O2) with PEG catalase” value ([2]; human colonoids) was “specifically digested with PEG catalase”.
